How the values were obtained:
[1] = system: GH; experiment: Example 4: serum GH concentration; assay type: in vivo, Beagle dogs; settings: once-daily or twice-daily 3 mg/kg, approximately 0.5 h, days 1, 4, 7
Experimental: A controlled, seven-day study was performed to assess the impact of different capromorelin-dosing regimens on the production of IGF-1, GH, and cortisol. The different capromorelin-dosing regimens were also assessed for the impact on food intake and changes in body mass.
[…] were divided into one of three treatment groups, with one negative control group and two active treatment groups. Each of the three treatment groups included three males and three females. The first group received a placebo formulation (i.e., deionized water) twice per day, via oral gavage. The second group received a once-daily dose of the capromorelin composition at a concentration of 3 mg/kg, via oral gavage. The third group received a twice-daily dose of the capromorelin composition at a concentration of 3 mg/kg, via oral gavage.
During the ten day study period, on an at least once-daily basis, each of the dogs was monitored for clinical observations, mortality, moribundity, body mass, acceptability/palatability, and food consumption. Serum samples were taken to measure capromorelin concentration, GH concentration, IGF-1 concentration, and cortisol concentration. Serum samples were taken on days 1, 2, 4, and 7 at −15 minutes (pre-dose), immediately prior to dosing (0 minutes) and 30, 45, 60, 90, 120, 240, 360, and/or 480 minutes post dosing. […]

[2] = system: cortisol; experiment: Example 5: serum cortisol; assay type: in vivo, Beagle dogs; settings: Groups 2-4; mitigated by Day 4, further reduced by Day 7
Experimental: In order to further refine the dosing regimen that would provide an appropriate blood profile of capromorelin and desired results from the perspective of increased food intake and weight gain, an additional series of experiments were conducted. In these experiments, twenty-four adult (male and female) Beagle dogs weighing approximately 9 to 13 kilograms were randomly divided into four groups. Group 1 received a placebo formulation, without any active compound, two times per day; Group 2 received a composition comprising 3 mg/kg of body weight of capromorelin one time per day; Group 3 received a composition comprising 4.5 mg/kg of body weight of capromorelin one time per day; and Group 4 received a composition comprising 3 mg/kg of body weight of capromorelin two times per day. […]
In these experiments, the animals were orally administered the flavored formulation at approximately 8:00 AM and, for Group 4 only, again at 6:00 PM. […] Food consumption was calculated and recorded on Days −7 through Day 7. Baseline food consumption was calculated for each individual dog as the average number of grams of food consumed on Days −3, −2, and −1. The study period food consumption was calculated for each individual dog as the average of Days 1 through 7. […]

[3] = Example 13 cat compromised kidney study: body weight and diet consumption; assay type: in vivo, cats with compromised kidney function; settings: subcutaneous 2 mg/kg daily for 14 days
Experimental: The following study was undertaken to assess multiple points. First, the following experiments were conducted to determine if a formulation of capromorelin, when administered either intravenously or subcutaneously, can stimulate appetite in cats with compromised kidney function. Second, the following experiments were conducted to assess the pharmacokinetic profile of capromorelin in the serum of cats with compromised kidney function. Finally, the following experiments were conducted to determine if capromorelin accumulates in the serum after 14 days of treatment that is subcutaneously administered.
Sixteen cats with compromised kidney function were acclimatized for the following study. Animals assigned to Group 1 (n=6) received an intravenous administration of a capromorelin formulation (i.e., capromorelin in sterile water) at a dose of 0.75 mg/kg on Day 0 of the experiment. Animals assigned to Group 2 (n=6) received a subcutaneous administration of a capromorelin formulation (2.1% w/v capromorelin, 1% w/v benzyl alcohol, and citrate buffer) daily for 14 days at a dose of 2 mg/kg. Animals assigned to Group 3 (n=4) served as untreated controls. […] Diet consumption was also monitored on study days −7 until day 13 for the animals in Groups 2 and 3 only.

Structure (SMILES): CN1N=C2CCN(C(=O)[C@@H](COCc3ccccc3)NC(=O)C(C)(C)N)C[C@@]2(Cc2ccccc2)C1=O.O=C(O)C(O)C(O)C(=O)O [capromorelin]
- GH levels in the serum after dosing [1]: marked increase
- cortisol in the serum [2]: initial increase in cortisol in the serum on Day 1
- amount of food consumed, Group 2 versus untreated Group 3 [3]: no significant difference
- body weights of Group 2 versus untreated Group 3 [3]: no significant differences
